Measured values: patent US10398727B2, “Methods for the treatment and prevention of asbestos-related diseases” (University of Technology, Sydney, priority 2014, dated 2019)

Tested on: crocidolite-induced mesothelioma in MexTAg299 transgenic mice
Experiment: Effect of CM on asbestos-induced mesothelioma in MexTAg299 mice (Example 2)
Settings: mouse, in vivo
Procedure: MexTAg299 transgenic mice are suitable for testing asbestos-induced mesothelioma with 100% incidence. MexTAg mice exposed to asbestos develop cancer that faithfully replicates key features of the pathogenesis of human mesothelioma.
Controls were normal saline (0.9%) or CM at 90 mg/kg (3 mice each).

In the case of clinoptilolite [CM], the “Mesothelioma (number of mice)” value was 0.
